According to patent publication US12582645B2, “Chemokine CXCR4 receptor modulators and uses related thereto” (Emory University, priority 2017, dated 2026):

target: T1, CXCR4 (Homo sapiens, UniProt P61073); test: CXCR4-CEM calcium flux assay, antagonist mode (inhibition of SDF-1α-induced calcium flux); format: cell-based; conditions: CCRF-CEM cells expressing endogenous CXCR4, stimulated with 4 nM SDF-1α, read-out: CXCR4 Ca^2+ Flux IC50
T1 construct: Human T lymphoblast cells (CCRF-CEM) expressing endogenous CXCR4 receptors; endogenous in cells; host or cells: CCRF-CEM (human T lymphoblast cells)
Description: CXCR4-CEM Calcium Flux Assays
Exemplary compounds of the invention were tested for their ability to induce or inhibit calcium flux in CCRF-CEM cells, a human cell line that endogenously expresses CXCR4. Activation of CXCR4 stimulates G protein signaling which, in CCRF-CEM cells, causes a series of downstream events that leads to the release of intracellular calcium stores, or calcium flux. Calcium ion concentrations can be easily measured using a wide variety of […] calcium indicators and, as a result, calcium flux assays are commonly employed methods for measuring G protein-coupled receptor (GPCR) activity. Because the therapeutic potential of CXCR4 antagonists as anti-cancer agents likely relies on their ability to inhibit CXCR4-mediated G protein signaling, this assay was utilized as a first-pass measure of inhibitor potency.
The cells were then equilibrated to room temperature for 30 minutes before assay. […] For “antagonist mode” assessment, the cells are subsequently incubated for 25 minutes at room temperature. SDF-1α (R&D System Cat #350-NS/CF) was then added at a final concentration of 4 nM to stimulate the cells. Inhibition of SDF-1α-induced calcium flux was monitored by FDSS6000 for 90 seconds.
After correcting for background, EC50 values were determined. […] Inhibition data for the test compound over a range of concentrations was plotted as percentage inhibition of the test compound as compared to an internal control compound.

T1 sequence (P61073 whole entry): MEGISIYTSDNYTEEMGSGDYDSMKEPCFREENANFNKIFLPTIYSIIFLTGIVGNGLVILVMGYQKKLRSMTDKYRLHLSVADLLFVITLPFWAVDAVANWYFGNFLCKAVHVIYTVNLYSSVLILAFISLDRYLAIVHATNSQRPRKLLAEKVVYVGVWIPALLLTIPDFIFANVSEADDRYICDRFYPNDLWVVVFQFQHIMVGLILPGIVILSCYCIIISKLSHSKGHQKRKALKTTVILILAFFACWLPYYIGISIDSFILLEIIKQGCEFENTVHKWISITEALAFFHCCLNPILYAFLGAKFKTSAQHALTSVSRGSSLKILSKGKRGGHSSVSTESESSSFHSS

`CN(C)[C@@H]1CCN(c2cccc3c2C[C@H](CN(C)[C@H]2CCCc4cccnc42)NC3)C1` [EMU237] and `CN1CCC(N(C)c2cccc3c2C[C@H](CN(C)[C@H]2CCCc4cccnc42)NC3)CC1` [EMU240] are within 1.5-fold of each other in IC50: 10.4 nM for the first, 13.4 nM for the second.

`CN1Cc2cccc(N3CCN4CCC[C@@H]4C3)c2C[C@@H]1CN(C)[C@H]1CCCc2cccnc21` [EMU239] and `CN1Cc2cccc(N3CCN4CCC[C@H]4C3)c2C[C@@H]1CN(C)[C@H]1CCCc2cccnc21` [EMU241] are within 1.5-fold of each other in IC50: 44.6 nM for the first, 58.1 nM for the second.
